Where two headings read alike, the source gives them in different places.

This note sets out measurements from patent US11066414B2, “Cot modulators and methods of use thereof” (Gilead Sciences, Inc., priority 2015, dated 2021).

This experiment deals with TNFα. Description: Cot Monocyte TNFα Cell Based Assay.
Where [1] appears, read: Homo sapiens, Monocyte, read-out: EC50 TNF, LPS-stimulated human monocytes, TNFα.
[2] abbreviates: read-out: EC50 TNF, LPS-stimulated human monocytes, TNFα TR-FRET.

Description: The cell suspension was then plated at a density of 5,000 cells/well onto black 384 well Greiner clear bottom plates. Plates were pre-spotted with test compounds and serially diluted in DMSO where 200 nL/well were delivered using the Echo 550 acoustic liquid dispenser (Labcyte®) for a final DMSO concentration of 0.5%. Plated cells were treated with compound for 1 hour at 37° C. Cells were then stimulated with 50 pg/ml of LPS (Sigma) excluding outside columns of plate used for unstimulated cell control wells. Cells were incubated for an additional 4 hours at 37° C. Cells were then spun out of the media and 5 μl of sample were taken and analyzed for total TNFα content using the TR-FRET Human TNFα detection system (CisBio). This system utilizes two labeled antibodies (cryptate and XL665) that bind to two different epitopes of the TNFα molecule and produce FRET signal proportional to the concentration of TNFα in the sample. […] Plates were covered with clear seals and incubated at room temp overnight. […] Percent of control was calculated as follows: % Control=100×(RatioSample−Ratio0% Stimulation)/(Ratio100% Stimulation−Ratio0% Stimulation) where unstimulated cells (0% stimulation) were the negative control and stimulated cells (100% stimulation) were used as the positive control.

Regarding `[2H]C(Nc1cc(Cl)c2ncc(C#N)c(N[C@H](CC)c3ccccc3)c2c1)(c1cn(C2CC2)nn1)c1cc(F)cnc1C` (stereo partly drawn) [Example 113, 8-chloro-6-(((1-cyclopropyl-1H-1,2,3-triazol-4-yl)(5-fluoro-2-methylpyridin-3-yl)methyl-d)amino)-4-(((R)-1-phenylpropyl)amino)quinoline-3-carbonitrile], the EC50 under setting [1] came to 253 nM.

For the compound `Cc1nc(F)ccc1[C@H](Nc1cc(Cl)c2ncc(C#N)c(NCC(C)(C)C)c2c1)c1nnn2c1OCCC2` [Example 985, (S)-8-chloro-6-(((6,7-dihydro-5H-[1,2,3]triazolo[5,l-b][1,3]oxazin-3-yl)(6-fluoro-2-methylpyridin-3-yl)methyl)amino)-4-(neopentylamino)quinoline-3-carbonitrile], the EC50 under setting [2] turned out to be 126 nM.

With `Cc1ccc([C@H](Nc2cc(Cl)c3ncc(C#N)c(Nc4ccc(F)c(Cl)c4)c3c2)c2cn(C(C)C)nn2)cn1` [Example 280, (S)-8-chloro-4-((3-chloro-4-fluorophenyl)amino)-6-(((1-isopropyl-1H-1,2,3-triazol-4-yl)(6-methylpyridin-3-yl)methyl)amino)quinoline-3-carbonitrile], the EC50 under setting [1] amounted to 811 nM.

In the case of `Cn1c(=O)ccc2c([C@H](Nc3cc(Cl)c4ncc(C#N)c(NCC(C)(C)C)c4c3)c3cn(C4(C(F)(F)F)CC4)nn3)cccc21` [Example 789, (S)-8-chloro-6-(((1-methyl-2-oxo-1,2-dihydroquinolin-5-yl)(1-(1-(trifluoromethyl)cyclopropyl)-1H-1,2,3-triazol-4-yl)methyl)amino)-4-(neopentylamino)quinoline-3-carbonitrile], the EC50 under setting [1] turned out to be 156 nM.

In the case of `COc1ccc([C@H](Nc2cc(C#N)c3ncc(C#N)c(NCC(C)(C)C)c3c2)c2cn(C3(C(F)(F)F)CC3)nn2)cn1` [Example 905, (S)-6-(((6-methoxypyridin-3-yl)(1-(1-(trifluoromethyl)cyclopropyl)-1H-1,2,3-triazol-4-yl)methyl)amino)-4-(neopentylamino)quinoline-3,8-dicarbonitrile], the EC50 (Homo sapiens, Monocyte, read-out: EC50 TNF, LPS-stimulated human monocytes, TNFα TR-FRET) turned out to be 212 nM.

`N#Cc1cnc2c(Cl)cc(N[C@@H](c3cnc(F)c(F)c3)c3c[nH]nn3)cc2c1Nc1cnc(F)c(F)c1` [Example 163, (S)-8-chloro-6-(((5,6-difluoropyridin-3-yl)(1H-1,2,3-triazol-4-yl)methyl)amino)-4-((5,6-difluoropyridin-3-yl)amino)quinoline-3-carbonitrile]: the 50% effective concentration (EC50) under setting [1] was 4140 nM.

Regarding `CC[C@@H](Nc1c(C#N)cnc2c(Cl)cc(N[C@@H](c3cccnc3)c3cn(C4CCCC4)nn3)cc12)c1ccccc1` [Example 213, 8-chloro-6-(((S)-(1-cyclopentyl-1H-1,2,3-triazol-4-yl)(pyridin-3-yl)methyl)amino)-4-(((R)-1-phenylpropyl)amino)quinoline-3-carbonitrile], the EC50 under setting [1] turned out to be 103 nM.

Regarding `Cc1ncsc1[C@H](Nc1cc(Cl)c2ncc(C#N)c(Nc3ccc(Cl)c(Cl)c3F)c2c1)c1cn(C2COC2)nn1` [Example 217, (R)-8-chloro-4-((3,4-dichloro-2-fluorophenyl)amino)-6-(((4-methylthiazol-5-yl)(1-(oxetan-3-yl)-1H-1,2,3-triazol-4-yl)methyl)amino)quinoline-3-carbonitrile], the concentration giving a half-maximal response (EC50) under setting [1] was 264 nM.

As for `Cn1ccc([C@H](Nc2cc(Cl)c3ncc(C#N)c(Nc4ccc(F)c(Cl)c4)c3c2)c2cn(C3CCN(C(C)(C)C)CC3)nn2)n1` [Example 268, (R)-6-(((1-(1-(tert-butyl)piperidin-4-yl)-1H-1,2,3-triazol-4-yl)(1-methyl-1H-pyrazol-3-yl)methyl)amino)-8-chloro-4-((3-chloro-4-fluorophenyl)-amino)quinoline-3-carbonitrile], under setting [1], the EC50 is 234 nM.

As to `CC(C)(C)CNc1c(C#N)cnc2c(Cl)cc(N[C@H](c3cn(C4(C(F)(F)F)CC4)nn3)c3cccc4c(=O)n(C(F)F)ccc34)cc12` [Example 788, (S)-8-chloro-6-(((2-(difluoromethyl)-1-oxo-1,2-dihydroisoquinolin-5-yl)(1-(1-(trifluoromethyl)cyclopropyl)-1H-1,2,3-triazol-4-yl)methyl)amino)-4-(neopentylamino)quinoline-3-carbonitrile], the EC50 under setting [1] was found to be 208 nM.

As for `COc1ncccc1[C@H](Nc1cc(Cl)c2ncc(C#N)c(NCC(C)(C)C)c2c1)c1cn(C2(C(F)(F)F)CC2)nn1` [Example 782, (S)-8-chloro-6-(((2-methoxypyridin-3-yl)(1-(1-(trifluoromethyl)cyclopropyl)-1H-1,2,3-triazol-4-yl)methyl)amino)-4-(neopentylamino)quinoline-3-carbonitrile], the EC50 under setting [1] was 177 nM.

On to `Cc1scnc1[C@H](Nc1cc(Cl)c2ncc(C#N)c(Nc3ccc(F)c(Cl)c3)c2c1)c1cn(C2CCN(C(C)(C)C)CC2)nn1` [Example 137, (S)-6-(((1-(1-(tert-butyl)piperidin-4-yl)-1H-1,2,3-triazol-4-yl)(5-methylthiazol-4-yl)methyl)amino)-8-chloro-4-((3-chloro-4-fluorophenyl)amino)quinoline-3-carbonitrile], for which the EC50 under setting [1] was 235 nM.

Take `N#Cc1cnc2c(Cl)cc(N[C@@H](c3cscn3)c3cn(C4CCNCC4)nn3)cc2c1Nc1ccc(F)c(Cl)c1` [Example 354, (S)-8-chloro-4-((3-chloro-4-fluorophenyl)amino)-6-(((1-(piperidin-4-yl)-1H-1,2,3-triazol-4-yl)(thiazol-4-yl)methyl)amino)-quinoline-3-carbonitrile]: the EC50 under setting [1] was 983 nM.

Take `Cc1ncccc1[C@H](Nc1cc(Cl)c2ncc(C#N)c(Nc3cccc(Cl)c3)c2c1)c1c[nH]nn1` [Example 224, (S)-8-chloro-4-((3-chlorophenyl)amino)-6-(((2-methylpyridin-3-yl)(1H-1,2,3-triazol-4-yl)methyl)amino)-quinoline-3-carbonitrile]: the EC50 under setting [1] was 2630 nM.

Turning to `Cc1nc(Cl)ccc1[C@H](Nc1cc(Cl)c2ncc(C#N)c(Nc3cnc(F)c(F)c3)c2c1)c1c[nH]nn1` [Example 169, (S)-8-chloro-6-(((6-chloro-2-methylpyridin-3-yl)(1H-1,2,3-triazol-4-yl)methyl)amino)-4-((5,6-difluoropyridin-3-yl)amino)quinoline-3-carbonitrile], the half-maximal effective concentration (EC50) under setting [1] was found to be 1220 nM.

`CC(C)(C)CNc1c(C#N)cnc2c(C#N)cc(N[C@H](c3cn(C4(CF)CC4)nn3)c3cccc4ncsc34)cc12` [Example 441, (S)-6-((benzo[d]thiazol-7-yl(1-(1-(fluoromethyl)cyclopropyl)-1H-1,2,3-triazol-4-yl)methyl)amino)-4-(neopentylamino)quinoline-3,8-dicarbonitrile]: the EC50 under setting [1] is 26 nM.

Consider `Cc1nc(F)ccc1[C@H](Nc1cc(Cl)c2ncc(C#N)c(NCC(C)(C)C)c2c1)c1cn(C2(C(C)(C)C)CC2)nn1` [Example 761, (S)-6-(((1-(1-(tert-butyl)cyclopropyl)-1H-1,2,3-triazol-4-yl)(6-fluoro-2-methylpyridin-3-yl)methyl)amino)-8-chloro-4-(neopentylamino)quinoline-3-carbonitrile], for which the EC50 under setting [1] amounted to 69 nM.

With `Cn1ncc2c([C@H](Nc3cc(Cl)c4ncc(C#N)c(NCC(C)(C)C)c4c3)c3cn(C4(C(F)(F)F)CC4)nn3)cccc21` [Example 543, (S)-8-chloro-6-(((1-methyl-1H-indazol-4-yl)(1-(1-(trifluoromethyl)cyclopropyl)-1H-1,2,3-triazol-4-yl)methyl)amino)-4-(neopentylamino)quinoline-3-carbonitrile], the EC50 under setting [1] is 422 nM.

Turning to `Cc1ncccc1[C@H](Nc1cc(Cl)c2ncc(C#N)c(Nc3ccc(F)c(Cl)c3)c2c1)c1c[nH]nn1` [Example 272, (S)-8-chloro-4-((3-chloro-4-fluorophenyl)amino)-6-(((2-methylpyridin-3-yl)(1H-1,2,3-triazol-4-yl)methyl)amino)quinoline-3-carbonitrile], the EC50 under setting [1] was 297 nM.

Regarding `Cc1nc(F)ccc1[C@H](Nc1cc(C#N)c2ncc(C#N)c(NCC(C)(C)C)c2c1)c1cn(C2(C(F)(F)F)COC2)nn1` [Example 644, (S)-6-(((6-fluoro-2-methylpyridin-3-yl)(1-(3-(trifluoromethyl)oxetan-3-yl)-1H-1,2,3-triazol-4-yl)methyl)amino)-4-(neopentylamino)quinoline-3,8-dicarbonitrile], the EC50 under setting [1] amounted to 88 nM.

With `N#Cc1cnc2c(Cl)cc(N[C@@H](C3=CCOCC3)c3c[nH]nn3)cc2c1Nc1cnc(F)c(F)c1` [Example 156, (S)-8-chloro-4-((5,6-difluoropyridin-3-yl)amino)-6-(((3,6-dihydro-2H-pyran-4-yl)(1H-1,2,3-triazol-4-yl)methyl)amino)quinoline-3-carbonitrile], under setting [1], the EC50 is 1190 nM.

As to `Cn1ccc2c([C@H](Nc3cc(Cl)c4ncc(C#N)c(NCC(C)(C)C)c4c3)c3cn(C4(C(F)(F)F)CC4)nn3)ccnc21` [Example 658, (S)-8-chloro-6-(((1-methyl-1H-pyrrolo[2,3-b]pyridin-4-yl)(1-(1-(trifluoromethyl)-cyclopropyl)-1H-1,2,3-triazol-4-yl)methyl)amino)-4-(neopentylamino)quinoline-3-carbonitrile], under setting [1], the EC50 was found to be 374 nM.

As to `Cn1ccc2c([C@H](Nc3cc(Cl)c4ncc(C#N)c(NCC(C)(C)C)c4c3)c3nnn(C45CC(C4)C5)c3F)cccc2c1=O` [Example 961, (S)-6-(((1-(bicyclo[111]pentan-1-yl)-5-fluoro-1H-1,2,3-triazol-4-yl)(2-methyl-1-oxo-1,2-dihydroisoquinolin-5-yl)methyl)amino)-8-chloro-4-(neopentylamino)quinoline-3-carbonitrile], the EC50 under setting [2] was 48 nM.

As for `N#Cc1csc([C@H](Nc2cc(Cl)c3ncc(C#N)c(Nc4ccc(F)c(Cl)c4)c3c2)c2cn(C3COC3)nn2)c1` [Example 339, (R)-8-chloro-4-((3-chloro-4-fluorophenyl)amino)-6-(((4-cyanothiophen-2-yl)(1-(oxetan-3-yl)-1H-1,2,3-triazol-4-yl)methyl)amino)-quinoline-3-carbonitrile], under setting [1], the EC50 stood at 1010 nM.

Usually EC50 stands for the midpoint of the concentration-response curve.
